The target of assay [1] is T1, human E3 ubiquitin-protein ligase RNF31 (HOIP) (Homo sapiens, UniProt Q96EP0).
T1 sequence (Q96EP0 695-1072 limits assumed): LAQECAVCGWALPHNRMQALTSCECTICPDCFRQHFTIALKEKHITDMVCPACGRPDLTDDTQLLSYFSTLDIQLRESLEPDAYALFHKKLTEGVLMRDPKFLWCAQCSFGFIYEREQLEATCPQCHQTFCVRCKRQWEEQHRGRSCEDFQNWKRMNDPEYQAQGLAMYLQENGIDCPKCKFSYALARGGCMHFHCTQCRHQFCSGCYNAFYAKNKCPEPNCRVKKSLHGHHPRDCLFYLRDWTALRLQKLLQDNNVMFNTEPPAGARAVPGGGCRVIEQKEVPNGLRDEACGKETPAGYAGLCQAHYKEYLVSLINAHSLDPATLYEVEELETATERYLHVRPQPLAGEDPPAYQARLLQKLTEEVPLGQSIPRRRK
Kind of assay: Cell-free HTRF-based HOIP inhibition assay. It is filed as biochemical. A digest of the protocol:
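Recombinant human HOIP fragment (E. coli) preincubated with compounds (100-0.005 μM, 1% DMSO) and E1 for 1 h at 25° C. E2 and substrates then added; reaction 2.5 h at 25° C. HTRF read-out, excitation 337 nm, emissions 665/620 nm.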

Another assay deals with NF-κB signaling pathway. Kind of assay: Cell-based dual luciferase NF-κB reporter assay (HEK293 cells, TNF stimulated). The settings on record: Homo sapiens, HEK293. A digest of the protocol:
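HEK293 cells transfected with Firefly luciferase and NF-κB-response-element NanoLuc plasmids; compounds at 100–0.005 µM in 1% DMSO. Cells stimulated with 2.5 ng/mL TNF 30 min after compound addition. Firefly and NanoLuc activities read after 6 h by Nano-Glo dual-luciferase detection.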

Assay [2] relates to bladder carcinoma RT4 cell line. In words: TNF-α-induced cytotoxicity assay (CellTiter-Glo viability). It is filed as cell-based. The settings on record: Homo sapiens, RT-4, 72 h. A digest of the protocol: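 RT4 bladder carcinoma cells, 1000 per well, stimulated with 1.25 ng/mL TNFα together with compound for 72 h at 37° C., 5% CO2. Viability read by CellTiter-Glo luminescence, proportional to cellular ATP, as a measure of HOIP-dependent cytotoxicity.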
On the technique in general: Cellular ATP, detected with luciferase, serves as a proxy for viable cell number.

Bounds are passed on as bounds.

Take `COc1ccc(S(=N)(=O)/C=C/CNC(=O)c2cc3c([nH]c2=O)CCCC3)c(C)c1` (stereo not drawn) [Example 139, N-[(2E)-3-[imino(4-methoxy-2-methylphenyl)oxo-λ^6-sulfanyl]prop-2-en-1-yl]-2-oxo-1,2,5,6,7,8-hexahydroquinoline-3-carboxamide]: the concentration for half-maximal inhibition (IC50) (in assay [1]; in the assay with NF-κB signaling pathway; in assay [2]) was no more than 1 µM in each case.

For the molecule `N=S(=O)(/C=C/CNC(=O)c1cc2c([nH]c1=O)CCCC2)c1ccc(Oc2ccccc2)cc1` (stereo not drawn) [Example 140, N-[(2E)-3-[imino(oxo)(4-phenoxyphenyl)-λ^6-sulfanyl]prop-2-en-1-yl]-2-oxo-1,2,5,6,7,8-hexahydroquinoline-3-carboxamide], the half-maximal inhibitory concentration (IC50) (in assay [1]; in the assay on NF-κB signaling pathway; in assay [2]) was no more than 1 µM in each case.

For the molecule `COc1ccc(S(=N)(=O)/C=C/CNC(=O)c2cc3c([nH]c2=O)CCC(C)C3)cc1F` (stereo not drawn) [Example 142, N-[(2E)-3-[(3-fluoro-4-methoxyphenyl)(imino)oxo-λ^6-sulfanyl]prop-2-en-1-yl]-6-methyl-2-oxo-1,2,5,6,7,8-hexahydroquinoline-3-carboxamide], the IC50 (in assay [1]; in the assay with NF-κB signaling pathway; in assay [2]) was no more than 1 µM in each case.

As for `COc1ccc(S(=N)(=O)/C=C/CNC(=O)c2cc3ccccc3[nH]c2=O)cc1F` (stereo not drawn) [Example 143, N-[(2E)-3-[(3-fluoro-4-methoxyphenyl)(imino)oxo-λ^6-sulfanyl]prop-2-en-1-yl]-2-oxo-1,2-dihydroquinoline-3-carboxamide], the half-maximal inhibitory concentration (IC50) (as a rule, the point on the concentration scale where inhibition reaches its midpoint) in assay [1] is no more than 0.1 µM; with NF-κB signaling pathway it was no more than 1 µM; in assay [2], no more than 1 µM.

As to `COc1ccc(S(=N)(=O)/C=C/CNC(=O)c2cc3c([nH]c2=O)CCOC3)cc1F` (stereo not drawn) [Example 145, N-[(2E)-3-[(3-fluoro-4-methoxyphenyl)(imino)oxo-λ^6-sulfanyl]prop-2-en-1-yl]-2-oxo-1H,2H,5H,7H,8H-pyrano[4,3-b]pyridine-3-carboxamide], the IC50 in assay [1] was no more than 1 µM; with NF-κB signaling pathway it was no more than 100 µM; in assay [2], no more than 10 µM.

As for `N=S(=O)(/C=C/CNC(=O)c1cc2c([nH]c1=O)CCCC2)c1cccc(Oc2ccccc2)c1` (stereo not drawn) [Example 146, N-[(2E)-3-[imino(oxo)(3-phenoxyphenyl)-λ^6-sulfanyl]prop-2-en-1-yl]-2-oxo-1,2,5,6,7,8-hexahydroquinoline-3-carboxamide], the values for the IC50 (in assay [1]; in the assay on NF-κB signaling pathway; in assay [2]) were no more than 0.1 µM, no more than 1 µM and no more than 1 µM, respectively.

Consider `COc1ccc(S(=N)(=O)/C=C/CNC(=O)c2cc3c([nH]c2=O)CCC(C(F)(F)F)C3)cc1F` (stereo not drawn) [Example 147, N-[(2E)-3-[(3-fluoro-4-methoxyphenyl)(imino)oxo-λ^6-sulfanyl]prop-2-en-1-yl]-2-oxo-6-(trifluoromethyl)-1,2,5,6,7,8-hexahydroquinoline-3-carboxamide], for which the IC50 in assay [1] was no more than 1 µM; with NF-κB signaling pathway, no more than 10 µM; in assay [2], no more than 10 µM.

Turning to `COc1ccc(S(=N)(=O)/C=C/CNC(=O)c2cc3c([nH]c2=O)CCC(C(C)(C)C)C3)cc1F` (stereo not drawn) [Example 148, 6-tert-butyl-N-[(2E)-3-[(3-fluoro-4-methoxyphenyl)(imino)oxo-A*-sulfanyl]prop-2-en-1-yl]-2-oxo-1,2,5,6,7,8-hexahydroquinoline-3-carboxamide], the IC50 (in assay [1]; with NF-κB signaling pathway; in assay [2]) was no more than 1 µM each time.

Turning to `COc1ccc(S(=N)(=O)/C=C/CNC(=O)c2cc(-c3ccccc3)c[nH]c2=O)cc1F` (stereo not drawn) [Example 149, N-[(2E)-3-[(3-fluoro-4-methoxyphenyl)(imino)oxo-λ^6-sulfanyl]prop-2-en-1-yl]-2-oxo-5-phenyl-1,2-dihydropyridine-3-carboxamide], the half-inhibitory concentration (IC50) in assay [1] was no more than 1 µM; in the assay with NF-κB signaling pathway it was no more than 10 µM; in assay [2], no more than 10 µM.

In the case of `COc1ccc(S(=N)(=O)/C=C/CNC(=O)c2cc3c([nH]c2=O)CCCCC3)cc1F` (stereo not drawn) [Example 150, N-[(2E)-3-[(3-fluoro-4-methoxyphenyl)(imino)oxo-λ^6-sulfanyl]prop-2-en-1-yl]-2-oxo-1H,2H,5H,6H,7H,8H,9H-cyclohepta[b]pyridine-3-carboxamide], the IC50 in assay [1] was no more than 1 µM; in the assay with NF-κB signaling pathway it was no more than 10 µM; in assay [2], no more than 1 µM.

Consider `COc1ccc(S(=N)(=O)/C=C/CNC(=O)c2cc3c([nH]c2=O)CCC3)cc1F` (stereo not drawn) [Example 151, N-[(2E)-3-[(3-fluoro-4-methoxyphenyl)(imino)oxo-λ^6-sulfanyl]prop-2-en-1-yl]-2-oxo-1H,2H,5H,6H,7H-cyclopenta[b]pyridine-3-carboxamide], for which the values for the IC50 (in assay [1]; in the assay with NF-κB signaling pathway; in assay [2]) were no more than 1 µM, no more than 10 µM and no more than 1 µM, respectively.

With `COc1ccc(S(=N)(=O)/C=C/CNC(=O)c2cc3c([nH]c2=O)CCN(C(=O)OC(C)(C)C)C3)cc1F` (stereo not drawn) [Example 152, tert-butyl 3-{[(2E)-3-[(3-fluoro-4-methoxyphenyl)(imino)oxo-λ^6-sulfanyl]prop-2-en-1-yl]carbamoyl}-2-oxo-1,2,5,6,7,8-hexahydro-1,6-naphthyridine-6-carboxylate], the IC50 in assay [1] is no more than 0.1 µM; with NF-κB signaling pathway, no more than 10 µM; in assay [2] it was no more than 10 µM.

Take `COc1ccc(S(=N)(=O)/C=C/CNC(=O)c2cc3c([nH]c2=O)CCN(Cc2ccccc2)C3)cc1F` (stereo not drawn) [Example 153, 6-benzyl-N-[(2E)-3-[(3-fluoro-4-methoxyphenyl)(imino)oxo-A*-sulfanyl]prop-2-en-1-yl]-2-oxo-1,2,5,6,7,8-hexahydro-1,6-naphthyridine-3-carboxamide]: the IC50 (in assay [1]; in the assay on NF-κB signaling pathway; in assay [2]) was no more than 1 µM throughout.

Consider `COc1ccc(S(=N)(=O)/C=C/CNC(=O)c2cc3c([nH]c2=O)CCC(OC)C3)cc1F` (stereo not drawn) [Example 169, N-[(2E)-3-[(3-fluoro-4-methoxyphenyl)(imino)oxo-λ^6-sulfanyl]prop-2-en-1-yl]-6-methoxy-2-oxo-1,2,5,6,7,8-hexahydroquinoline-3-carboxamide], for which the IC50 in assay [1] is no more than 1 µM; with NF-κB signaling pathway it was no more than 10 µM; in assay [2], no more than 10 µM.

As to `COc1ccc(S(=N)(=O)/C=C/CNC(=O)c2cc3c([nH]c2=O)CCN(CC(F)(F)F)C3)cc1F` (stereo not drawn) [Example 170, N-[(2E)-3-[(3-fluoro-4-methoxyphenyl)(imino)oxo-λ^6-sulfanyl]prop-2-en-1-yl]-2-oxo-6-(2,2,2-trifluoroethyl)-1,2,5,6,7,8-hexahydro-1,6-naphthyridine-3-carboxamide], the IC50 in assay [1] is no more than 1 µM; with NF-κB signaling pathway it was no more than 10 µM; in assay [2], no more than 10 µM.

With `COc1ccc(S(=N)(=O)/C=C/CNC(=O)c2cc3c([nH]c2=O)CCN(C(=O)OCC(F)F)C3)cc1F` (stereo not drawn) [Example 178, 2,2-difluoroethyl 3-{[(2E)-3-[(3-fluoro-4-methoxyphenyl)(imino)oxo-λ^6-sulfanyl]prop-2-en-1-yl]carbamoyl}-2-oxo-1,2,5,6,7,8-hexahydro-1,6-naphthyridine-6-carboxylate], the values for the IC50 (in assay [1]; in the assay on NF-κB signaling pathway; in assay [2]) were no more than 0.1 µM, no more than 10 µM and no more than 10 µM, respectively.

For the molecule `N=S(=O)(/C=C/CNC(=O)c1cc2c([nH]c1=O)CCN(C(=O)OCC1CC1)C2)c1ccccc1` (stereo not drawn) [Example 179, cyclopropylmethyl 3-{[(2E)-3-[imino(oxo)phenyl-λ^6-sulfanyl]prop-2-en-1-yl]carbamoyl}-2-oxo-1,2,5,6,7,8-hexahydro-1,6-naphthyridine-6-carboxylate], the IC50 in assay [1] was no more than 1 µM; in the assay on NF-κB signaling pathway, no more than 10 µM; in assay [2], no more than 10 µM.

Regarding `COc1ccc(S(=N)(=O)/C=C/CNC(=O)c2cc3c([nH]c2=O)CCN(C(=O)OCCF)C3)cc1F` (stereo not drawn) [Example 180, 2-fluoroethyl 3-{[(2E)-3-[(3-fluoro-4-methoxyphenyl)(imino)oxo-λ^6-sulfanyl]prop-2-en-1-yl]carbamoyl}-2-oxo-1,2,5,6,7,8-hexahydro-1,6-naphthyridine-6-carboxylate], the IC50 was no more than 0.1 µM in assay [1], no more than 10 µM in the assay on NF-κB signaling pathway and no more than 10 µM in assay [2].

With `N=S(=O)(/C=C/CNC(=O)c1cc2c([nH]c1=O)CCN(C(=O)OCCF)C2)c1ccccc1` (stereo not drawn) [Example 181, 2-fluoroethyl 3-{[(2E)-3-[imino(oxo)phenyl-λ^6-sulfanyl]prop-2-en-1-yl]carbamoyl}-2-oxo-1,2,5,6,7,8-hexahydro-1,6-naphthyridine-6-carboxylate], the IC50 in assay [1] is no more than 1 µM; in the assay with NF-κB signaling pathway, no more than 100 µM; in assay [2] it was no more than 10 µM.

On to `N=S(=O)(/C=C/CNC(=O)c1cc2c([nH]c1=O)CCN(C(=O)OCC(F)F)C2)c1ccccc1` (stereo not drawn) [Example 182, 2,2-difluoroethyl 3-{[(2E)-3-[imino(oxo)phenyl-λ^6-sulfanyl]prop-2-en-1-yl]carbamoyl}-2-oxo-1,2,5,6,7,8-hexahydro-1,6-naphthyridine-6-carboxylate], for which the half-inhibitory concentration (IC50) in assay [1] is no more than 1 µM; with NF-κB signaling pathway, no more than 100 µM; in assay [2], no more than 10 µM.

These data come from US20260250250A1, “3-(SULPHONYL OR SULFONIMIDOYL)PROP-2-EN-1-YL]-2-OXO-1,2-DIHYDROPYRIDINE-3-CARBOXAMIDE DERIVATIVES” (Flinder Therapeutics B.V., priority 2022, published 2026).
